Patent publication US6060504A, “N-methyl-N-[(1S)-1-phenyl-2-(3S)-hydroxypyrrolidin-1-yl)ethyl]-2 -2-diphenylacetamide” (priority 1995, dated 2000)
Structures can show the parent of a compound that is named as a salt. Where two headings read alike, the source gives them in different places.

Legend:
[1] = pharmaceutical activity of crystal forms; assay type: in vivo
[2] = assay type: physicochemical
Protocol: In the case of these two types, not only their melting behavior differs but also their storage stabilities. […] During DSC determination (DSC=Differential Scanning Calorimetry)of the crystal form of type II, on slow heating above the melting point at approximately 200° C. the crystal type IV which melts at approximately 220-226° C. crystallizes out. Crystal type IV is also detected when a melt of type II (just above 200° C.) is suddenly cooled and stored at room temperature for a period of 12 to 16 hours. […] In contrast to this, however, by seeding with seed crystals of type […] the crystal form IV is especially obtained. Additionally, the solubility of the crystal type IV in aqueous solution is lower than that of type II.

intestinal motility = assay: inflammatory bowel disorders / intestinal motility; assay type: in vivo; conditions: inflammatory bowel disorder
[3] = tested on: rheumatic disorders and back conditions; assay: treatment of rheumatic disorders and back conditions; assay type: in vivo
[4] = anti-inflammatory, diuretic, anticonvulsive and neuroprotective actions (familiar methods); conditions: in vivo
[5] = tested on: inflammation-related hyperalgesias; assay: analgesic action / inflammation-related hyperalgesias; conditions: in vivo
writhing (pain) = assay: writhing test; assay type: in vivo; conditions: mice or rats
From the text: Experiments have shown that the compound according to the invention is active in the "writhing test" on mice or rats (method cf. Siegmund et al., Proc. Soc. Exp. Biol. 95, (1957), 729-731).

allergic skin reactions = assay: treatment of allergies to the sun; assay type: in vivo
kappa-receptors = assay: binding to kappa-receptors
[6] = blood-brain barrier passage; conditions: due to its structure
physical dependence = physical dependence / dependence potential; assay type: in vivo
[7] = tested on: carrageenan-induced hyperalgesia; assay: carrageenan-induced hyperalgesia model; assay type: in vivo; conditions: rats
neurodermatitis = assay: treatment of neurodermatitis; assay type: in vivo
side effects = conditions: in vivo
burns = assay: treatment of burns and sunburn; assay type: in vivo; conditions: heat, flames, severe sunburn
Solubility in water = assay type: physicochemical; conditions: at 20° C.
pKa = assay type: physicochemical
Solubility in methanol = assay type: physicochemical; conditions: organic solvent or mixture, at 20° C.
[8] = Solubility of crystal types in aqueous solution; assay type: physicochemical
[9] = listed as N-methyl-N-[(1S)-1-phenyl-2-((3S)-3-hydroxypyrrolidin-1-yl)ethyl]-2,2-diphenylac

CN(C(=O)C(c1ccccc1)c1ccccc1)[C@H](CN1CC[C@H](O)C1)c1ccccc1.Cl [N-methyl-N-[(1S)-1-phenyl-2-((3S)-3-hydroxypyrrolidin-1-yl)ethyl]-2,2-diphenylacetamide hydrochloride]
effectiveness as medicament in all indication areas ([1]; all types of preparation forms): particularly effective

CN(C(=O)C(c1ccccc1)c1ccccc1)[C@H](CN1CC[C@H](O)C1)c1ccccc1 [type I, N-methyl-N-[(1S)-1-phenyl-2-((3S)-3-hydroxypyrrolidin-1-yl)ethyl]-2,2-diphenylacetamide]
conversion of solvate type I ([2]; slow heating releases solvent): readily converted into another crystal type

CN(C(=O)C(c1ccccc1)c1ccccc1)[C@H](CN1CC[C@H](O)C1)c1ccccc1 [compound according to the invention, N-methyl-N-[(1S)-1-phenyl-2-((3S)-3-hydroxypyrrolidin-1-yl)ethyl]-2,2-diphenylacetamide]
intestinal motility normalization (intestinal motility): suitable for normalizing disorders of the intestinal motility
intestinal motility normalization (intestinal motility; [9]): normalizes the motility of the intestine or sets it in motion again
efficacy in rheumatic disorders and back conditions ([3]; in vivo): particularly effective
normal motility of the gastrointestinal tract ([3]; rheumatic disorders and back conditions): not adversely affected
anti-inflammatory action [4]: pronounced
anticonvulsive action [4]: pronounced
diuretic action [4]: pronounced
neuroprotective action [4]: pronounced
analgesic actions [5]: particularly good analgesic actions
antagonism of inflammation-related hyperalgesias [5]: antagonize
activity in the writhing test (writhing (pain)): active
allergic skin reactions (allergic skin reactions): allergic skin reactions rapidly fade
itching, allergies to the sun (allergic skin reactions): rapidly subsides
affinity to kappa-receptors (kappa-receptors): high affinity
dependence of pharmaceutical activity on crystal form ([1]; in vivo): relatively independent of the crystal form
blood-brain barrier passage [6]: cannot pass through the blood-brain barrier
dependence potential (physical dependence; attributed to no blood-brain barrier passage): no dependence potential
tendency to physical dependence (physical dependence; in vivo): no or only a small tendency to physical dependence
action in carrageenan-induced hyperalgesia model [7]: Particularly strong actions
inflammatory reactions, neurodermatitis (neurodermatitis): favorably influenced
itching, neurodermatitis (neurodermatitis): the itching of the skin in this disorder subsides
side effects (side effects): no side effects have been found which would restrict the use
side effects (side effects; [9]): without causing noticeable side effects
treatment of burns (burns): particularly suitable in the treatment of burns

CN(C(=O)C(c1ccccc1)c1ccccc1)[C@H](CN1CC[C@H](O)C1)c1ccccc1 [Comparison Example, N-methyl-N-[(1S)-1-phenyl-2-((3S)-3-hydroxypyrrolidin-1-yl)ethyl]-2.2-diphenylacetamide hydrochloride]
solubility (Solubility in water): 11.6 mg/mL
stability of crystal form [2]: metastable
storage at high humidity ([2]; atmospheric humidity approximately 73% to 95%): A form designated as type III is obtained
storage at 170° C. ([2]; drying oven at 170° C.): a partial conversion into type IV was detected
seven months' storage ([2]; seven months, room temperature): a start of conversion to the thermostable crystal modification IV
pKa (pKa; read-out: pKa): 7.4
solubility (Solubility in methanol): 63.1 mg/mL

CN(C(=O)C(c1ccccc1)c1ccccc1)[C@H](CN1CC[C@H](O)C1)c1ccccc1.Cl [Example 1, N-methyl-N-[(1S)-1-phenyl-2-((3S)-3-hydroxypyrrolidin-1-yl)ethyl]-2,2-diphenylacetamide hydrochloride]
solubility (Solubility in water): 7.6 mg/mL
solubility of crystal type IV relative to the solubility of type II [8]: 45% to 70
pKa (pKa): 7.4
solubility (Solubility in methanol): 42.6 mg/mL
